Source: the supplement of paper PMC13207355

Columns and labels:
Conditions in all cases: exposure time: 72 h
E13 [1] = patient-derived glioblastoma stem cells of classical subtype; assay: surviving fraction (nuclei count normalised to DMSO); higher = more cells surviving (less toxic)
E21 [2] = patient-derived glioblastoma stem cells of mesenchymal subtype; assay: as above
E28 [3] = patient-derived glioblastoma stem cells of classical subtype; assay: as above
E34 [4] = patient-derived glioblastoma stem cells of proneural subtype; assay: as above
E57 [5] = patient-derived glioblastoma stem cells of mesenchymal subtype; assay: as above
FT3469 [6] = normal neural stem cell line; assay: as above
E13 [7] = assay: phenotypic distance (Euclidean, principal components) from DMSO controls (arbitrary units); higher = stronger morphological change
E21 [8] = assay: as above
E28 [9] = assay: as above
E34 [10] = assay: as above
E57 [11] = assay: as above
FT3469 [12] = assay: as above
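Wherever phenotypic distance (Euclidean, principal components) from DMSO controls is given: cell Painting imaging in 384-well plates, CellProfiler features reduced to at least 20 principal components, Euclidean distance versus same-plate DMSO vehicle wells (0.1% v/v), median over six images per well.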
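Wherever surviving fraction (nuclei count normalised to DMSO) is given: nuclei counted by high-content imaging of Hoechst-stained cells in laminin-coated 384-well plates, relative to 0.1% DMSO vehicle wells, with staurosporine as cell-death control.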

CN[C@@H](C)C(=O)N[C@H](C(=O)N1CCC[C@H]1C(=O)N[C@H]1c2ccccc2C[C@H]1OCC#CC#CCO[C@@H]1Cc2ccccc2[C@@H]1NC(=O)[C@@H]1CCCN1C(=O)[C@@H](NC(=O)[C@H](C)NC)C1CCCCC1)C1CCCCC1 [AZD5582]
Conditions	phenotypic distance	surviving fraction
E13 [1], 4.1 nM	–	0.897
E13 [1], 12.3 nM	–	0.9073
E13 [1], 37 nM	–	0.764
E13 [1], 111.1 nM	–	0.8218
E13 [1], 333.3 nM	–	0.814
E13 [1], 1000 nM	–	0.789
E13 [1], 3000 nM	–	0.755
E13 [7], 4.1 nM	1.42	–
E13 [7], 12.3 nM	1.1	–
E13 [7], 37 nM	1.5	–
E13 [7], 111.1 nM	1.31	–
E13 [7], 333.3 nM	1.39	–
E13 [7], 1000 nM	1.63	–
E13 [7], 3000 nM	1.79	–
E21 [2], 4.1 nM	–	0.73
E21 [2], 12.3 nM	–	0.739
E21 [2], 37 nM	–	0.742
E21 [2], 111.1 nM	–	0.721
E21 [2], 333.3 nM	–	0.628
E21 [2], 1000 nM	–	0.633
E21 [2], 3000 nM	–	0.5049
E21 [8], 4.1 nM	1.08	–
E21 [8], 12.3 nM	1.03	–
E21 [8], 37 nM	1.42	–
E21 [8], 111.1 nM	1.39	–
E21 [8], 333.3 nM	1.47	–
E21 [8], 1000 nM	1.24	–
E21 [8], 3000 nM	1.92	–
E28 [3], 4.1 nM	–	0.975
E28 [3], 12.3 nM	–	1
E28 [3], 37 nM	–	0.978
E28 [3], 111.1 nM	–	1.01
E28 [3], 333.3 nM	–	1.021
E28 [3], 1000 nM	–	0.944
E28 [3], 3000 nM	–	0.802
E28 [9], 4.1 nM	0.701	–
E28 [9], 12.3 nM	0.512	–
E28 [9], 37 nM	0.645	–
E28 [9], 111.1 nM	0.558	–
E28 [9], 333.3 nM	0.744	–
E28 [9], 1000 nM	0.712	–
E28 [9], 3000 nM	2.48	–
E34 [4], 4.1 nM	–	0.925
E34 [4], 12.3 nM	–	0.838
E34 [4], 37 nM	–	0.855
E34 [4], 111.1 nM	–	0.911
E34 [4], 333.3 nM	–	0.9
E34 [4], 1000 nM	–	0.847
E34 [4], 3000 nM	–	0.764
E34 [10], 4.1 nM	0.7	–
E34 [10], 12.3 nM	0.804	–
E34 [10], 37 nM	0.881	–
E34 [10], 111.1 nM	1.07	–
E34 [10], 333.3 nM	0.735	–
E34 [10], 1000 nM	0.779	–
E34 [10], 3000 nM	1.26	–
E57 [5], 4.1 nM	–	0.95
E57 [5], 12.3 nM	–	0.901
E57 [5], 37 nM	–	0.824
E57 [5], 111.1 nM	–	0.756
E57 [5], 333.3 nM	–	0.756
E57 [5], 1000 nM	–	0.719
E57 [5], 3000 nM	–	0.771
E57 [11], 4.1 nM	0.861	–
E57 [11], 12.3 nM	1.22	–
E57 [11], 37 nM	1.41	–
E57 [11], 111.1 nM	2.04	–
E57 [11], 333.3 nM	2.285	–
E57 [11], 1000 nM	2.41	–
E57 [11], 3000 nM	2.795	–
FT3469 [6], 4.1 nM	–	1.01
FT3469 [6], 12.3 nM	–	0.996
FT3469 [6], 37 nM	–	1.07
FT3469 [6], 111.1 nM	–	1.03
FT3469 [6], 333.3 nM	–	1.09
FT3469 [6], 1000 nM	–	0.918
FT3469 [6], 3000 nM	–	0.951
FT3469 [12], 4.1 nM	0.951	–
FT3469 [12], 12.3 nM	1.11	–
FT3469 [12], 37 nM	1.34	–
FT3469 [12], 111.1 nM	0.955	–
FT3469 [12], 333.3 nM	0.844	–
FT3469 [12], 1000 nM	1.57	–
FT3469 [12], 3000 nM	1.61	–

O=C(/C=C/c1cccnc1)NCCCCC1CCN(C(=O)c2ccccc2)CC1 [Daporinad]
Conditions	phenotypic distance	surviving fraction
E13 [1], 4.1 nM	–	0.897
E13 [1], 12.3 nM	–	0.759
E13 [1], 37 nM	–	0.712
E13 [1], 111.1 nM	–	0.732
E13 [1], 333.3 nM	–	0.779
E13 [1], 1000 nM	–	0.738
E13 [1], 3000 nM	–	0.728
E13 [7], 4.1 nM	1.28	–
E13 [7], 12.3 nM	2.03	–
E13 [7], 37 nM	2.19	–
E13 [7], 111.1 nM	2.19	–
E13 [7], 333.3 nM	2.17	–
E13 [7], 1000 nM	2.27	–
E13 [7], 3000 nM	2.04	–
E21 [2], 4.1 nM	–	0.918
E21 [2], 12.3 nM	–	0.977
E21 [2], 37 nM	–	1.06
E21 [2], 111.1 nM	–	0.924
E21 [2], 333.3 nM	–	0.916
E21 [2], 1000 nM	–	0.916
E21 [2], 3000 nM	–	0.873
E21 [8], 4.1 nM	0.674	–
E21 [8], 12.3 nM	0.879	–
E21 [8], 37 nM	1.12	–
E21 [8], 111.1 nM	1.73	–
E21 [8], 333.3 nM	2.59	–
E21 [8], 1000 nM	2.69	–
E21 [8], 3000 nM	2.46	–
E28 [3], 4.1 nM	–	0.436
E28 [3], 12.3 nM	–	0.459
E28 [3], 37 nM	–	0.4196
E28 [3], 111.1 nM	–	0.415
E28 [3], 333.3 nM	–	0.423
E28 [3], 1000 nM	–	0.351
E28 [3], 3000 nM	–	0.379
E28 [9], 4.1 nM	3.04	–
E28 [9], 12.3 nM	3.29	–
E28 [9], 37 nM	3.514	–
E28 [9], 111.1 nM	3.26	–
E28 [9], 333.3 nM	3.25	–
E28 [9], 1000 nM	3.51	–
E28 [9], 3000 nM	3.47	–
E34 [4], 4.1 nM	–	1.02
E34 [4], 12.3 nM	–	0.865
E34 [4], 37 nM	–	0.916
E34 [4], 111.1 nM	–	0.851
E34 [4], 333.3 nM	–	0.922
E34 [4], 1000 nM	–	0.8551
E34 [4], 3000 nM	–	1.04
E34 [10], 4.1 nM	1.25	–
E34 [10], 12.3 nM	1.37	–
E34 [10], 37 nM	1.45	–
E34 [10], 111.1 nM	1.6	–
E34 [10], 333.3 nM	1.35	–
E34 [10], 1000 nM	2.32	–
E34 [10], 3000 nM	1.37	–
E57 [5], 4.1 nM	–	0.731
E57 [5], 12.3 nM	–	0.677
E57 [5], 37 nM	–	0.693
E57 [5], 111.1 nM	–	0.71
E57 [5], 333.3 nM	–	0.668
E57 [5], 1000 nM	–	0.562
E57 [5], 3000 nM	–	0.621
E57 [11], 4.1 nM	2.92	–
E57 [11], 12.3 nM	3.204	–
E57 [11], 37 nM	3.213	–
E57 [11], 111.1 nM	3.31	–
E57 [11], 333.3 nM	3.19	–
E57 [11], 1000 nM	3.44	–
E57 [11], 3000 nM	3.491	–
FT3469 [6], 4.1 nM	–	0.8405
FT3469 [6], 12.3 nM	–	0.956
FT3469 [6], 37 nM	–	0.831
FT3469 [6], 111.1 nM	–	0.93
FT3469 [6], 333.3 nM	–	0.899
FT3469 [6], 1000 nM	–	0.892
FT3469 [6], 3000 nM	–	0.975
FT3469 [12], 4.1 nM	2.48	–
FT3469 [12], 12.3 nM	2	–
FT3469 [12], 37 nM	2.62	–
FT3469 [12], 111.1 nM	2.52	–
FT3469 [12], 333.3 nM	2.17	–
FT3469 [12], 1000 nM	2.56	–
FT3469 [12], 3000 nM	2.25	–

COc1cc2c(NC3CCN(C(C)C)CC3)nc(C3CCCCC3)nc2cc1OCCCN1CCCC1 [UNC0638]
Conditions	phenotypic distance	surviving fraction
E13 [1], 4.1 nM	–	0.973
E13 [1], 12.3 nM	–	0.986
E13 [1], 37 nM	–	0.987
E13 [1], 111.1 nM	–	0.957
E13 [1], 333.3 nM	–	1.01
E13 [1], 1000 nM	–	0.938
E13 [1], 3000 nM	–	0.894
E13 [7], 4.1 nM	0.43	–
E13 [7], 12.3 nM	0.523	–
E13 [7], 37 nM	0.48	–
E13 [7], 111.1 nM	0.587	–
E13 [7], 333.3 nM	0.476	–
E13 [7], 1000 nM	0.582	–
E13 [7], 3000 nM	1.57	–
E21 [2], 4.1 nM	–	0.976
E21 [2], 12.3 nM	–	0.999
E21 [2], 37 nM	–	1.11
E21 [2], 111.1 nM	–	1.02
E21 [2], 333.3 nM	–	0.976
E21 [2], 1000 nM	–	0.933
E21 [2], 3000 nM	–	0.808
E21 [8], 4.1 nM	0.389	–
E21 [8], 12.3 nM	0.354	–
E21 [8], 37 nM	0.463	–
E21 [8], 111.1 nM	1.99	–
E21 [8], 333.3 nM	0.574	–
E21 [8], 1000 nM	0.957	–
E21 [8], 3000 nM	2.1	–
E28 [3], 4.1 nM	–	1.03
E28 [3], 12.3 nM	–	0.988
E28 [3], 37 nM	–	1.01
E28 [3], 111.1 nM	–	1.01
E28 [3], 333.3 nM	–	0.967
E28 [3], 1000 nM	–	1.03
E28 [3], 3000 nM	–	0.942
E28 [9], 4.1 nM	0.389	–
E28 [9], 12.3 nM	0.447	–
E28 [9], 37 nM	0.394	–
E28 [9], 111.1 nM	0.488	–
E28 [9], 333.3 nM	0.53	–
E28 [9], 1000 nM	0.586	–
E28 [9], 3000 nM	1.38	–
E34 [4], 4.1 nM	–	0.998
E34 [4], 12.3 nM	–	1.1
E34 [4], 37 nM	–	1.082
E34 [4], 111.1 nM	–	1.07
E34 [4], 333.3 nM	–	1.15
E34 [4], 1000 nM	–	1.07
E34 [4], 3000 nM	–	0.964
E34 [10], 4.1 nM	0.461	–
E34 [10], 12.3 nM	0.632	–
E34 [10], 37 nM	0.627	–
E34 [10], 111.1 nM	0.646	–
E34 [10], 333.3 nM	0.795	–
E34 [10], 1000 nM	0.627	–
E34 [10], 3000 nM	0.864	–
E57 [5], 4.1 nM	–	1.03
E57 [5], 12.3 nM	–	1.02
E57 [5], 37 nM	–	1.084
E57 [5], 111.1 nM	–	1.01
E57 [5], 333.3 nM	–	1.0497
E57 [5], 1000 nM	–	1.08
E57 [5], 3000 nM	–	1.05
E57 [11], 4.1 nM	0.284	–
E57 [11], 12.3 nM	0.449	–
E57 [11], 37 nM	0.421	–
E57 [11], 111.1 nM	0.484	–
E57 [11], 333.3 nM	0.486	–
E57 [11], 1000 nM	0.443	–
E57 [11], 3000 nM	1.09	–
FT3469 [6], 4.1 nM	–	1.03
FT3469 [6], 12.3 nM	–	1.02
FT3469 [6], 37 nM	–	0.961
FT3469 [6], 111.1 nM	–	0.975
FT3469 [6], 333.3 nM	–	0.953
FT3469 [6], 1000 nM	–	0.929
FT3469 [6], 3000 nM	–	0.864
FT3469 [12], 4.1 nM	0.514	–
FT3469 [12], 12.3 nM	0.766	–
FT3469 [12], 37 nM	0.527	–
FT3469 [12], 111.1 nM	0.558	–
FT3469 [12], 333.3 nM	0.523	–
FT3469 [12], 1000 nM	0.714	–
FT3469 [12], 3000 nM	3.19	–
